This is an account of results in ChEMBL document CHEMBL1147706, “N-Alkyl-N-arylmethylpiperidin-4-amines: novel dual inhibitors of serotonin and norepinephrine reuptake” (Bioorg Med Chem Lett, 2006).

Assay [1] addresses Sodium-dependent serotonin transporter (Homo sapiens, UniProt P31645). Description: Displacement of [3H]citalopram from SERT.
The target in assay [2] is Sodium-dependent noradrenaline transporter (Homo sapiens, UniProt P23975). Description: Displacement of [3H]nisoxetine from NET. (In a radioligand displacement assay an active substance lowers the binding of a labelled ligand.)
Sequence of Sodium-dependent noradrenaline transporter (P23975 whole entry): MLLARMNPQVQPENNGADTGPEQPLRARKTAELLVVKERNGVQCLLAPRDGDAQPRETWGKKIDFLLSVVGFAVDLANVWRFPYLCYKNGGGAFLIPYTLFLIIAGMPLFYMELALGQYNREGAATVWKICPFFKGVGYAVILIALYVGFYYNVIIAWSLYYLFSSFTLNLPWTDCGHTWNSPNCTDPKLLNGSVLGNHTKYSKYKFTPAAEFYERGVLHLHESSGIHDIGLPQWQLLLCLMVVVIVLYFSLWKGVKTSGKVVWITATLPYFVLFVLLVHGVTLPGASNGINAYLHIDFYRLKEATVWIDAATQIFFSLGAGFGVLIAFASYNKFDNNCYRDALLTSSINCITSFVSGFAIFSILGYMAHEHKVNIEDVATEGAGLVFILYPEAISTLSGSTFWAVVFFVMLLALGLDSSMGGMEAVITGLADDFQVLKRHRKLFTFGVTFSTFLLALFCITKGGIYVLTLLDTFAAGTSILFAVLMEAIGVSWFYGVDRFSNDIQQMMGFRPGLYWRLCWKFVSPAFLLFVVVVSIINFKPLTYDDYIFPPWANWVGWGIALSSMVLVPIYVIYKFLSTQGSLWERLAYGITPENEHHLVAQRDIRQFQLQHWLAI
The target in assay [3] is T1, Sodium-dependent dopamine transporter (Homo sapiens, UniProt Q01959). Description: Displacement of [3H]WIN-35 from DAT.
T1 sequence (Q01959 whole entry): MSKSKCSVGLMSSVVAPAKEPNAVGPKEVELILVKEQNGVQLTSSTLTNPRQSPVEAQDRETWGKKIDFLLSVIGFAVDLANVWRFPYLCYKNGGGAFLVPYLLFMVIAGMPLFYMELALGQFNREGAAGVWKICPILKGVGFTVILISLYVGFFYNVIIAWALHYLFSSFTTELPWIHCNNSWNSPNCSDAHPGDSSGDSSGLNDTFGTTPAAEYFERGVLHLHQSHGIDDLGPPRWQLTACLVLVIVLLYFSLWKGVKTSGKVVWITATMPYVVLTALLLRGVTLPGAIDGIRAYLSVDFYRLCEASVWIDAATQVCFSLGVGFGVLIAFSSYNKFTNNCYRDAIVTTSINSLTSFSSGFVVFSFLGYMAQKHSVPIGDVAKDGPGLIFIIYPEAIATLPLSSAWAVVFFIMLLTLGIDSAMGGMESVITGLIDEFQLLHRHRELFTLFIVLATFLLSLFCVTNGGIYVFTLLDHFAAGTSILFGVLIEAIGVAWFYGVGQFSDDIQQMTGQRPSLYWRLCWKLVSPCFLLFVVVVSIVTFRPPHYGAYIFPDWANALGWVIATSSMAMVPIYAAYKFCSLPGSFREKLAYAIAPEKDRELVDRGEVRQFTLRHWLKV
For assay [4], the target named is T1, Sodium-dependent dopamine transporter. Description: Displacement of [3H]WIN-35 from DAT at 1 uM.

Sequence of Sodium-dependent serotonin transporter (P31645 whole entry): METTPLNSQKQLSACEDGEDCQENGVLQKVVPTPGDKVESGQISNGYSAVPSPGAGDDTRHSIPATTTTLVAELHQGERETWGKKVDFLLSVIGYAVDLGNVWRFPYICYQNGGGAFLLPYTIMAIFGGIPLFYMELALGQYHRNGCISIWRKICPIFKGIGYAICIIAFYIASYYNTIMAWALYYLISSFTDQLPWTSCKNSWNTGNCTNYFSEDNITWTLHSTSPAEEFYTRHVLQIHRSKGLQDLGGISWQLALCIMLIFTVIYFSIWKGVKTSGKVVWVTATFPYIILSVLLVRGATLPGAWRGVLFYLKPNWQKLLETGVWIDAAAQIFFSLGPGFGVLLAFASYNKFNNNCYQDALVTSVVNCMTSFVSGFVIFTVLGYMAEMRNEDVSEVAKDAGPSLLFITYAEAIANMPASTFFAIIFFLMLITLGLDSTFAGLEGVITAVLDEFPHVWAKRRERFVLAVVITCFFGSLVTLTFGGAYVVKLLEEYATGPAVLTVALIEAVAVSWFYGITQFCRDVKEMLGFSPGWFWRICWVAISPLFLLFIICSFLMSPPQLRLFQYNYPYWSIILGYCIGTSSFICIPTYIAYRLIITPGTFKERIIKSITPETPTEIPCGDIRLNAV

Take `CC(C)CN(Cc1ccc(C#N)cc1)C1CCNCC1`: the Ki in assay [1] came to 0.28 nM; in assay [2], 190 nM.

Regarding `CC(C)CN(Cc1cccc(F)c1)C1CCNCC1`, the Ki came out at 43 nM in assay [2] and 86.5 nM in assay [3].

For `N#CCCN(Cc1ccc(F)cc1C(F)(F)F)C1CCNCC1`, the results for the Ki in assay [1] and in assay [2] were 0.4 nM and 13.3 nM, respectively. Further, in assay [4], the inhibition was -4%.

In the case of `CCCN(Cc1ccc(F)cc1C(F)(F)F)C1CCNCC1`, the figures for the Ki in assay [1] and in assay [2] were 0.8 nM and 3.6 nM, respectively.

As to `Fc1ccc(CN(CC2CC2)C2CCNCC2)c(C(F)(F)F)c1` [listing 1 of 2 here], the values for the Ki in assay [1] and in assay [2] were 0.8 nM and 6.1 nM, respectively.

On to `COCCCN(Cc1ccc(F)cc1C(F)(F)F)C1CCNCC1`, for which the results for the Ki in assay [1] and in assay [2] were 1.1 nM and 5.4 nM, respectively. The inhibition in assay [4] is -7%.

`CC(C)CN(Cc1ccccc1C(F)(F)F)C1CCNCC1`: the figures for the Ki in assay [1], in assay [2] and in assay [3] were 1.4 nM, 3.2 nM and 210 nM, respectively.

On to `CC(C)CN(Cc1cc(C(F)(F)F)ccc1Cl)C1CCNCC1`, for which the Ki worked out at 9.6 nM in assay [1] and 175 nM in assay [2].

As to `CCCCN(Cc1ccccc1C(F)(F)F)C1CCNCC1`, the values for the Ki in assay [1] and in assay [2] were 1.5 nM and 5.1 nM, respectively.

`Fc1ccc(CN(CC2CCC2)C2CCNCC2)c(C(F)(F)F)c1`: the Ki in assay [1] was found to be 2.5 nM; in assay [2], 3.1 nM.

As to `COc1ccccc1CN(CC(C)C)C1CCNCC1`, the results for the Ki in assay [1] and in assay [2] were 15 nM and 145 nM, respectively. In addition, the inhibition in assay [4] turned out to be 4%.

With `CC(C)CN(Cc1cccc(C(F)(F)F)c1)C1CCNCC1`, the Ki in assay [1] worked out at 0.26 nM; in assay [2], 255 nM.

With `CCC(CC)N(Cc1ccccc1C(F)(F)F)C1CCNCC1`, the Ki stood at 6.8 nM in assay [1] and 86 nM in assay [2].

For `CSc1ccccc1CN(CC(C)C)C1CCNCC1`, the Ki was 1.1 nM in assay [1] and 3.3 nM in assay [2].

For the compound `CC(C)CN(Cc1ccc(F)cc1F)C1CCNCC1`, the Ki stood at 3.1 nM in assay [1], 20 nM in assay [2] and 580 nM in assay [3].

Take `FC(F)(F)c1ccccc1CN(CC1CC1)C1CCNCC1`: the Ki was 1.5 nM in assay [1] and 6 nM in assay [2].

On to `CC(C)(C)CN(Cc1ccccc1C(F)(F)F)C1CCNCC1`, for which the Ki in assay [1] was determined as 4.3 nM; in assay [2], 2.7 nM; in assay [3], 160 nM.

In the case of `CC(C)(C#N)CN(Cc1ccc(F)cc1C(F)(F)F)C1CCNCC1`, the Ki in assay [1] worked out at 4.2 nM; in assay [2] it was 15.9 nM.

As to `OCCN(Cc1ccc(F)cc1C(F)(F)F)C1CCNCC1`, the results for the Ki in assay [1] and in assay [2] were 3.1 nM and 95.9 nM, respectively. The inhibition in assay [4] was -7%.

Consider `CC(C)CN(Cc1ccccc1)C1CCNCC1`, for which the values for the Ki in assay [1] and in assay [2] were 8.4 nM and 91 nM, respectively.

As to `CC(C)CN(Cc1ccc(C(F)(F)F)cc1F)C1CCNCC1`, the Ki in assay [1] was 5.8 nM; in assay [2], 2.2 nM; in assay [3] it was 120 nM.

Regarding `CC(C)CN(Cc1ccc(Cl)cc1Cl)C1CCNCC1`, the Ki in assay [1] came out at 0.96 nM; in assay [2] it was 2 nM; in assay [3], 230 nM.

Take `Cc1ccc(CN(CC(C)C)C2CCNCC2)c(C)c1`: the inhibition constant Ki in assay [1] is 0.39 nM; in assay [2], 4.8 nM.

Turning to `CC(C)CN(Cc1cc(F)ccc1C(F)(F)F)C1CCNCC1`, the results for the Ki in assay [1] and in assay [2] were 7.9 nM and 3.4 nM, respectively.

For `CC(C)(O)CN(Cc1ccc(F)cc1C(F)(F)F)C1CCNCC1`, the values for the Ki in assay [1] and in assay [2] were 4 nM and 4.2 nM, respectively. The inhibition in assay [4] was -8%.

With `CN(Cc1ccccc1C(F)(F)F)C1CCNCC1`, in assay [4], the inhibition was determined as 3%.

Take `CCOCCN(Cc1ccc(F)cc1C(F)(F)F)C1CCNCC1`: the Ki in assay [1] amounted to 2.8 nM; in assay [2], 9.6 nM. Moreover, in assay [4], the inhibition is -3%.

Regarding `CC(C)OCCN(Cc1ccc(F)cc1C(F)(F)F)C1CCNCC1`, the results for the inhibition constant (Ki) in assay [1] and in assay [2] were 3 nM and 9.7 nM, respectively. For the same compound, in assay [4], the inhibition is 5%.

On to `COc1ccc(F)cc1CN(CC(C)C)C1CCNCC1`, for which the Ki came out at 1.4 nM in assay [1] and 42.1 nM in assay [2]. In addition, the inhibition in assay [4] was -2%.

Regarding `FC(F)(F)OCCN(Cc1ccccc1C(F)(F)F)C1CCNCC1`, the values for the Ki in assay [1] and in assay [2] were 17 nM and 51 nM, respectively. In addition, the inhibition in assay [4] was -8%.

In the case of `N#CCCCN(Cc1ccccc1C(F)(F)F)C1CCNCC1`, the values for the Ki in assay [1] and in assay [2] were 0.58 nM and 21 nM, respectively.

On to `CC(C)(C#N)CCN(Cc1ccc(F)cc1C(F)(F)F)C1CCNCC1`, for which the figures for the Ki in assay [1] and in assay [2] were 0.7 nM and 6.2 nM, respectively.

Take `CC(C)CN(Cc1ccccc1OC(F)(F)F)C1CCNCC1`: the values for the Ki in assay [1] and in assay [2] were 2.2 nM and 7.1 nM, respectively.

In the case of `Cc1ccc(CN(CC(C)C)C2CCNCC2)cc1`, the inhibitory constant (Ki) amounted to 0.99 nM in assay [1] and 69 nM in assay [2].

With `CC(C)CN(Cc1ccc(F)cc1C(F)(F)F)C1CCNCC1`, the Ki in assay [1] came out at 0.3 nM; in assay [2], 1.8 nM; in assay [3], 190 nM.

For `CC(C)CN(Cc1ccccc1Cl)C1CCNCC1`, the Ki in assay [1] was determined as 1.6 nM; in assay [2], 1.4 nM; in assay [3], 83 nM.

For `CCCCN(Cc1ccc(F)cc1C(F)(F)F)C1CCNCC1`, the Ki is 1.3 nM in assay [1] and 8.3 nM in assay [2].

With `COc1ccc(CN(CC(C)C)C2CCNCC2)c(OC)c1`, the Ki is 2.2 nM in assay [1] and 1060 nM in assay [2]. In assay [4], the inhibition was found to be 1.8%.

Regarding `COCCN(Cc1ccccc1C(F)(F)F)C1CCNCC1`, the Ki in assay [1] was determined as 2.5 nM; in assay [2], 8.3 nM. Besides, the inhibition in assay [4] worked out at 4%.

Turning to `N#CCCCN(Cc1ccc(F)cc1C(F)(F)F)C1CCNCC1`, the Ki in assay [1] was determined as 0.4 nM; in assay [2], 13.3 nM. The inhibition in assay [4] was 10%.

In the case of `CC(C)CN(Cc1ccccc1C#N)C1CCNCC1`, the Ki in assay [1] stood at 1.2 nM; in assay [2], 42 nM.

Regarding `CC(C)CN(Cc1cccc(C#N)c1)C1CCNCC1`, the Ki in assay [1] was determined as 0.48 nM; in assay [2] it was 690 nM; in assay [3] it was 201 nM.

For the compound `CC(C)(O)CCN(Cc1ccc(F)cc1C(F)(F)F)C1CCNCC1`, in assay [1], affinity was put at a Ki of 5 nM. Further, in assay [4], the inhibition was determined as 1.3%.

In the case of `Fc1ccc(CN(CC2CC2)C2CCNCC2)c(C(F)(F)F)c1` [listing 2 of 2 here], the Ki was found to be 0.4 nM in assay [1] and 6.5 nM in assay [2].

In the case of `CC(C)CN(Cc1ccc(C(F)(F)F)cc1)C1CCNCC1`, the Ki was 0.07 nM in assay [1] and 300 nM in assay [2].

Consider `CC(C)CN(Cc1ccc(F)cc1)C1CCNCC1`, for which the values for the Ki in assay [1], in assay [2] and in assay [3] were 1.9 nM, 78 nM and 200 nM, respectively.

Regarding `FC(F)(F)CN(Cc1ccccc1C(F)(F)F)C1CCNCC1`, the values for the inhibition constant Ki in assay [1] and in assay [2] were 4.6 nM and 33 nM, respectively.

As for `CCCN(Cc1ccccc1C(F)(F)F)C1CCNCC1`, the figures for the Ki in assay [1] and in assay [2] were 2.2 nM and 6.5 nM, respectively.

Consider `FC(F)(F)c1ccccc1CN(C1CCCC1)C1CCNCC1`, for which the Ki in assay [1] is 3.6 nM; in assay [2], 4.1 nM.

In the case of `CC(C)CN(Cc1ccccc1F)C1CCNCC1`, the inhibition constant (Ki) worked out at 15 nM in assay [2] and 330 nM in assay [3].

`CCC(CC)CN(Cc1ccccc1C(F)(F)F)C1CCNCC1`: the Ki in assay [1] was found to be 6.9 nM; in assay [2], 6.1 nM.

With `CCN(Cc1ccccc1C(F)(F)F)C1CCNCC1`, the Ki in assay [1] stood at 8 nM; in assay [2], 61 nM. Also, the inhibition in assay [4] is -2%.

For `CC(C)CN(Cc1cccc(C(F)(F)F)c1Cl)C1CCNCC1`, the Ki in assay [1] came to 0.48 nM; in assay [2], 420 nM.

As for `CC(C)CN(Cc1cc(Cl)ccc1Cl)C1CCNCC1`, the values for the Ki in assay [1] and in assay [2] were 2.1 nM and 5.5 nM, respectively.

With `Cc1cccc(CN(CC(C)C)C2CCNCC2)c1`, the Ki in assay [1] was 2.2 nM; in assay [2], 150 nM; in assay [3], 98 nM.

In the case of `CC(C)N(Cc1ccccc1C(F)(F)F)C1CCNCC1`, the Ki in assay [1] came to 5.6 nM; in assay [2] it was 26 nM.

Turning to `FC(F)(F)CCN(Cc1ccccc1C(F)(F)F)C1CCNCC1`, the Ki was found to be 2.8 nM in assay [1] and 9.8 nM in assay [2].

For `Cc1ccccc1CN(CC(C)C)C1CCNCC1`, the Ki amounted to 1.5 nM in assay [1], 3.3 nM in assay [2] and 240 nM in assay [3].

For `COCCCN(Cc1ccccc1C(F)(F)F)C1CCNCC1`, the Ki in assay [1] amounted to 2.2 nM; in assay [2] it was 6.8 nM. Further, the inhibition in assay [4] is -8%.

As for `CC(C)CN(Cc1c(F)cccc1C(F)(F)F)C1CCNCC1`, the Ki in assay [1] turned out to be 4.1 nM; in assay [2] it was 6 nM.

By Ki is commonly meant a measure of affinity in units of concentration, obtained from inhibition or displacement. The low end stands for a stronger hold on the target, the high end for a looser hold on the target. In general, inhibition refers to the relative decrease from the control value, in per cent.
